According to US9428492B2, “Secondary alcohol substituted triazoles as PDE10 inhibitors” (Merck Sharp & Dohme Corp., priority 2012, dated 2016):
Read-outs that look alike come from different tables or passages of the source.

Legend:
CYP3A4 = CYP3A4 (Homo sapiens (Human), UniProt P08684); test: time-dependent inhibition (TDI) of CYP3A4; assay type: in vitro ADME
human PDE10A2 = human PDE10A2 (Homo sapiens (Human), UniProt Q9Y233); test: PDE10 fluorescence polarization (IMAP FP) inhibition assay; assay type: biochemical
human PDE10A2, sequence (Q9Y233 267-1055): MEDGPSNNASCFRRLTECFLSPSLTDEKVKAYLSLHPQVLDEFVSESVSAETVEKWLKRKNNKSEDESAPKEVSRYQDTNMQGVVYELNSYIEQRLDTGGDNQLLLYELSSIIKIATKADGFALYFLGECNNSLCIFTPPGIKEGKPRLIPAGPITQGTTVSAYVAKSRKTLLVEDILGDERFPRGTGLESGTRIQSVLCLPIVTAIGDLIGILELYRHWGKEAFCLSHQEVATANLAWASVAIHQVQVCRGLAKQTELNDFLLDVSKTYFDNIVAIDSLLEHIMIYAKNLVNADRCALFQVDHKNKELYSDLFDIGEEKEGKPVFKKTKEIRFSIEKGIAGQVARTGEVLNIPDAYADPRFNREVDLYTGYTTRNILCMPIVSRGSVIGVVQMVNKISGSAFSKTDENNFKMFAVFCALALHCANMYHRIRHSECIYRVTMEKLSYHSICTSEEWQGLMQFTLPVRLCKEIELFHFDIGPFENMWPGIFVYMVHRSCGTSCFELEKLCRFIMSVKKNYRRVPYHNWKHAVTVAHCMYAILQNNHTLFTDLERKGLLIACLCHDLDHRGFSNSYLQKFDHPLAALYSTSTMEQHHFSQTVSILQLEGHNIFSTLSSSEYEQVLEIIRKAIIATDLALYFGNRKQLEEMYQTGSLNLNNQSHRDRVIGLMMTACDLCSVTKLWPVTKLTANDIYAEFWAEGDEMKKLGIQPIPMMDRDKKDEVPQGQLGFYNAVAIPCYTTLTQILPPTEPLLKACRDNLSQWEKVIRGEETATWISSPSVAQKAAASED
Procedure: The activity of the compounds in accordance with the present invention as PDE10 inhibitors may be readily determined without undue experimentation using a fluorescence polarization (FP) methodology that is well known in the art (Huang, W., et al., J. Biomol Screen, 2002, 7: 215).
In a typical experiment the PDE10 inhibitory activity of the compounds of the present invention was determined in accordance with the following experimental method. PDE10A2 was amplified from human fetal brain cDNA (Clontech, Mountain View, Calif.) using a forward primer corresponding to nucleotides 56-77 of human PDE10A2 (Accession No. AF127480, Genbank Identifier 4894716), containing a Kozak consensus sequence, and a reverse primer corresponding to nucleotides 2406-2413 of human PDE10A2 (Accession No. AF127480, Genbank Identifier 4894716). Amplification with Easy-A polymerase (Stratagene, La Jolla, Calif.) was 95° C. for 2 minutes followed by thirty three cycles of 95° C. for 40 seconds, 55° C. for 30 seconds, and 72° C. for 2 minutes 48 seconds. Final extension was 72° C. for 7 minutes. The PCR product was TA cloned into pcDNA3.2-TOPO (Invitrogen, Carlsbad, Calif.) according to standard protocol. AD293 cells with 70-80% confluency were transiently transfected with human PDE10A2/pcDNA3.2-TOPO using Lipofectamine 2000 according to manufacturer specifications (Invitrogen, Carlsbad, Calif.). Cells were harvested 48 hours post-transfection and lysed by sonication (setting 3, 10×5 sec pulses) in a buffer containing 20 mM HEPES, 1 mM EDTA and protease inhibitor cocktail (Roche). Lysate was collected by centrifugation at 75,000×g for 20 minutes. Supernatant containing the cytoplasmic fraction was used for evaluation of PDE10A2 activity. The fluorescence polarization assay for cyclic nucleotide phosphodiesterases was performed using an IMAP® FP kit supplied by Molecular Devices, Sunnyvale, Calif. (product # R8139). IMAP® technology has been applied previously to phosphodiesterase assays (Huang, W., et al., J. Biomol Screen, 2002, 7: 215). Assays were performed at room temperature in 384-well microtiter plates with an incubation volume of 20.2 μL. Solutions of test compounds were prepared in DMSO and serially diluted with DMSO to yield 8 μL of each of 10 solutions differing by 3-fold in concentration, at 32 serial dilutions per plate. […] 0% of inhibition is determined by using DMSO (1% final concentrations).
A Labcyte Echo 555 (Labcyte, Sunnyvale, Calif.) is used to dispense 200 nL from each well of the titration plate to the 384 well assay plate. A solution of enzyme (1/1600 dilution from aliquots; sufficient to produce 20% substrate conversion) and a separate solution of FAM-labeled cAMP PDE from Molecular Devices (product # R7506), at a final concentration of 50 nM are made in the assay buffer (10 mM Tris HCl, pH 7.2, 10 mM MgCl2, 0.05% NaN3 0.01% Tween-20, and 1 mM DTT). The enzyme and the substrate are then added to the assay plates in two consecutive additions of 10 μL, and then shaken to mix. The reaction is allowed to proceed at room temperature for 30 minutes. […] The enzymatic reaction is stopped by addition of 60 μL of the binding solution to each well of the assay plates and the plates are sealed and shaken for 10 seconds. The plate was incubated at room temperature for at least one hour prior to determining the fluorescence polarization (FP). The parallel and perpendicular fluorescence of each well of the plate was measured using a Perkin Elmer EnVision™ plate reader (Waltham, Mass.).
Fluorescence polarization (mP) was calculated from the parallel (S) and perpendicular (P) fluorescence of each sample well and the analogous values for the median control well, containing only substrate (So and Po), using the following equation: Polarization (mP)=1000*(S/So−P/Po)/(S/So+P/Po).
Dose-inhibition profiles for each compound were characterized by fitting the mP data to a four-parameter equation given below.

CYP2C9 = CYP2C9 (Homo sapiens (Human), UniProt P11712); test: reversible inhibition of CYP2C9; assay type: in vitro ADME
CYP2C9, sequence (P11712 whole entry): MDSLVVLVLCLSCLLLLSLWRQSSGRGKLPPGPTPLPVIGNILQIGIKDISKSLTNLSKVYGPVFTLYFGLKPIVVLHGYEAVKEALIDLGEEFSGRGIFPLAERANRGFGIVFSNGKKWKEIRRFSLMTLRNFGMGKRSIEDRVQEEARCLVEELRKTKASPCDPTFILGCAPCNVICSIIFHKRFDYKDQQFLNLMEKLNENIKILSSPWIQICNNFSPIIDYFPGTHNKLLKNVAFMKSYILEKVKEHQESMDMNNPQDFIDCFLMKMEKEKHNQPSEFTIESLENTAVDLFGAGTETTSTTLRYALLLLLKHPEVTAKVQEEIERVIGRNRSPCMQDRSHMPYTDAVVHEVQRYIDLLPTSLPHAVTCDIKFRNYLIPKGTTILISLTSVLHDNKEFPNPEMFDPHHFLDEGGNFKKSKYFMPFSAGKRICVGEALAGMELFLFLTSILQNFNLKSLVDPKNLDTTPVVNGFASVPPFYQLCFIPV

CYP3A4, sequence (P08684 whole entry): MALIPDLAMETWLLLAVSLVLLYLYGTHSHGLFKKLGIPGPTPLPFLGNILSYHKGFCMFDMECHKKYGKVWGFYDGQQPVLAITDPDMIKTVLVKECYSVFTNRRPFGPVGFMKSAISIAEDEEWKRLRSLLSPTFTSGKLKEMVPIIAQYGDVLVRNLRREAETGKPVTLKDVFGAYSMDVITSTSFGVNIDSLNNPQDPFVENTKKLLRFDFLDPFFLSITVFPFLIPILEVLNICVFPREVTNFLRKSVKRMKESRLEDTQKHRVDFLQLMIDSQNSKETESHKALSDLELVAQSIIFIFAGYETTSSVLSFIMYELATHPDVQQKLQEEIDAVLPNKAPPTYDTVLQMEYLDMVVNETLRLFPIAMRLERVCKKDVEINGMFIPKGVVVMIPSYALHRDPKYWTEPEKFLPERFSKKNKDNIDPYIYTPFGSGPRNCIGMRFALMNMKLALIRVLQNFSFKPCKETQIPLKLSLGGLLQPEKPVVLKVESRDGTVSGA

TDI CYP3A4 shift ratio (CYP3A4): 1
time-dependent inhibition (TDI) of the CYP3A4 enzyme (CYP3A4; result in words): do not exhibit TDI of CYP3A4
Ki (human PDE10A2; comparison table with Compounds A, B, C, read-out: PDE10 Ki): 1.1 nM
Ki (human PDE10A2; read-out: PDE10a Ki): 1.1 nM
IC50 (CYP2C9): > 50000 nM
Structure (SMILES): Cc1nc([C@@H]2C[C@H]2c2nc3ccccc3n2C)cc(-n2nc(C)nc2[C@@H](C)O)n1 [Example 14, (R)-1-(3-methyl-1-(2-methyl-6-((1R,2R)-2-(1-methyl-1H-benzo[d]imidazol-2-yl)cyclopropyl)pyrimidin-4-yl)-1H-1,2,4-triazol-5-yl)ethanol]
